Laboratory results: patent publication US20240148821A1, “PHARMACEUTICAL USE OF CYCLIC PEPTIDE COMPOUND” (CHUGAI SEIYAKU KABUSHIKI KAISHA, priority 2021, published 2024)
Numbered stars: 1 amine (or outer) side, 2 acyl side, 3 side chain; on linkers, the order of the positions; unused ones are H or OH. Bridge positions count the residues as written; N and C are the ends. Square brackets hold non-standard residues; d marks the D form. Peptide text beside a SMILES is read from it. * marks the point of attachment. hPhe(3,5-F2-4-CF3) = N[C@@H](CCc1cc(F)c(C(F)(F)F)c(F)c1)C(=O)O; hPhe(3-Cl-4-CF3) = N[C@@H](CCc1ccc(C(F)(F)F)c(Cl)c1)C(=O)O; X115 = O=C([C@H](CCc1ccc(S(F)(F)(F)(F)F)cc1)N[*:1])[*:2]; NMePhe(4-CF3) = CN[C@@H](Cc1ccc(C(F)(F)F)cc1)C(=O)O; X37 = CC(C)(C)NC(=O)COC[C@H](CC(=O)[*:1])N[*:2]; NMeAbu(4,4,4-F3) = CN[C@@H](CC(F)(F)F)C(=O)O; NMePhe(4-Cl) = CN[C@@H](Cc1ccc(Cl)cc1)C(=O)O; NMePhe(2-CN) = CN[C@@H](Cc1ccccc1C#N)C(=O)O; NMePhe(4-Me) = CN[C@@H](Cc1ccc(C)cc1)C(=O)O; NMedβ3hAla = C[C@H](CC(=O)[*:2])N(C)[*:1]; NMeAla(cPent) = CN[C@@H](CC1CCCC1)C(=O)O; NMeGly(cPent) = CN[C@H](C(=O)O)C1CCCC1; Phe(3-I) = N[C@@H](Cc1cccc(I)c1)C(=O)O; Pro(4,4-F2) = O=C(O)[C@@H]1CC(F)(F)CN1; Ala(cPent) = N[C@@H](CC1CCCC1)C(=O)O; NMeCha = CN[C@@H](CC1CCCCC1)C(=O)O; NMeChg = CN[C@H](C(=O)O)C1CCCCC1; NMeF = CN[C@@H](Cc1ccccc1)C(=O)O; NMeI = CC[C@H](C)[C@H](NC)C(=O)O; NMeD = CN[C@@H](CC(=O)O)C(=O)O; NMeL = CN[C@@H](CC(C)C)C(=O)O; αMeL = CC(C)C[C@](C)(N)C(=O)O; NMeNle = CCCC[C@H](NC)C(=O)O; NMeV = CN[C@H](C(=O)O)C(C)C; d(β3hA) = C[C@@H](N)CC(=O)O; NMeS = CN[C@@H](CO)C(=O)O; NMeA = CN[C@@H](C)C(=O)O; NMeAib = CNC(C)(C)C(=O)O; Nle = CCCC[C@H](N)C(=O)O; Piperidide = C1CCN(*)CC1; Pyrrolidide = C1CCN(*)C1; Ac5c = NC1(C(=O)O)CCCC1; Aze = O=C(O)[C@@H]1CCN1; Abu = CC[C@H](N)C(=O)O; Isopentyl = CC(C)CC*; Sar = CNCC(=O)O

system: Human pancreatic cancer cell line AsPC-1 (G12D mutation Kras); assay: AsPC-1 cell growth inhibition (AsPC-1 CGI); type: cell-based; conditions: read-out: AsPC-1 cell growth inhibition, 50% growth inhibitory concentration (IC50 value); 96 hours, CellTiter-Glo, values classified in ranges
Procedure: Test compounds were serially dilated with dimethyl sulfoxide, and 200 nL was then dispensed to a U-bottom 96-well plate using Labcyte Echo. […] The cell suspension was dispensed to a. plate containing a test compound at 100 μL per well and incubated at 37° C. in a 5% carbon dioxide gas incubator. 96 hours later, 80 μL of CellTiter-Glo (Promega) was added to each well and fluorescence was measured.

Row | Compound | IC50 [nM]
1 | CC[C@H](C)[C@@H]1NC(=O)[C@H](CC(F)(F)F)N(C)C(=O)C[C@@H](C(=O)N2CCCC2)N(C)C(=O)[C@H](C2CCCCC2)N(C)C(=O)C2(CCCC2)NC(=O)[C@@H]2CC(F)(F)CN2C(=O)[C@H](CCc2cc(F)c(C(F)(F)F)c(F)c2)NC(=O)CN(C)C(=O)[C@H](Cc2ccc(C)cc2)N(C)C(=O)CN(C)C(=O)CN(C)C1=O [Compound 1317] ([NMeAbu(4,4,4-F3)]I[Sar][Sar][NMePhe(4-Me)][Sar][hPhe(3,5-F2-4-CF3)][Pro(4,4-F2)][Ac5c][NMeChg][NMeD]-Pyrrolidide; lactam N-11) | ≤ 20
2 | CCCC[C@H]1C(=O)N(C)[C@H](C(=O)N2CCCCC2)CC(=O)N(C)[C@@H](CC(C)C)C(=O)N[C@@H]([C@@H](C)CC)C(=O)N(C)CC(=O)N(C)CC(=O)N(C)[C@@H](CC2CCCCC2)C(=O)N(C)CC(=O)N[C@@H](CCc2ccc(C(F)(F)F)c(Cl)c2)C(=O)N2CCC[C@H]2C(=O)NC2(CCCC2)C(=O)N1C [Compound 1815] ([NMeL]I[Sar][Sar][NMeCha][Sar][hPhe(3-Cl-4-CF3)]P[Ac5c][NMeNle][NMeD]-Piperidide; lactam N-11) | > 500
3 | CC[C@H](C)[C@@H]1NC(=O)[C@H](CC(C)C)N(C)C(=O)C[C@@H](C(=O)N(C)C)N(C)C(=O)[C@H](C2CCCC2)N(C)C(=O)C2(CCCC2)NC(=O)[C@@H]2CCCN2C(=O)[C@H](CCc2ccc(C(F)(F)F)c(Cl)c2)NC(=O)CN(C)C(=O)[C@H](Cc2ccc(C)cc2)N(C)C(=O)CN(C)C(=O)CN(C)C1=O [Compound 1779] ([NMeL]I[Sar][Sar][NMePhe(4-Me)][Sar][hPhe(3-Cl-4-CF3)]P[Ac5c][NMeGly(cPent)][NMeD]-NMe2; lactam N-11) | ≤ 20
4 | CC[C@H](C)[C@@H]1NC(=O)[C@H](CC(C)C)N(C)C(=O)C[C@@H](C(=O)N(C)C)N(C)C(=O)[C@H]([C@@H](C)CC)N(C)C(=O)C2(CCCC2)NC(=O)[C@H](COCCC(C)C)N(C)C(=O)[C@H](CCc2ccc(C(F)(F)F)c(Cl)c2)NC(=O)CN(C)C(=O)[C@H](Cc2ccc(C)cc2)N(C)C(=O)[C@@H]2CCN2C(=O)[C@H](C)N(C)C1=O [Compound 27] ([NMeL]I[NMeA][Aze][NMePhe(4-Me)][Sar][hPhe(3-Cl-4-CF3)][NMeS](Isopentyl)[Ac5c][NMeI][NMeD]-NMe2; lactam N-11) | ≤ 20
5 | CC[C@@H]1NC(=O)[C@H](Cc2cccc(I)c2)NC(=O)CN(C)C(=O)[C@H](Cc2ccc(Cl)cc2)N(C)C(=O)CN(C)C(=O)CN(C)C(=O)[C@H]([C@@H](C)CC)NC(=O)[C@H](CC(C)C)N(C)C(=O)C[C@@H](C(=O)N2CCCCC2)N(C)C(=O)[C@H](CC(C)C)NC(=O)C(C)(C)N(C)C1=O [Compound 457] ([NMeL]I[Sar][Sar][NMePhe(4-Cl)][Sar][Phe(3-I)][Abu][NMeAib]L[NMeD]-Piperidide; lactam N-11) | > 500
6 | CC[C@H](C)[C@@H]1NC(=O)[C@H](C)N(C)C(=O)C[C@@H](C(=O)N2CCCCC2)NC(=O)[C@H](CC(C)C)N(C)C(=O)[C@H](Cc2ccccc2)N(C)C(=O)[C@H](CC(C)C)NC(=O)[C@H](CCc2ccc(C(F)(F)F)c(Cl)c2)NC(=O)CN(C)C(=O)[C@H](Cc2ccc(Cl)cc2)N(C)C(=O)CN(C)C(=O)CN(C)C1=O [Compound 861] ([NMeA]I[Sar][Sar][NMePhe(4-Cl)][Sar][hPhe(3-Cl-4-CF3)]L[NMeF][NMeL]D-Piperidide; lactam N-11) | > 500
7 | CC[C@H](C)[C@@H]1NC(=O)[C@H](CC(C)C)N(C)C(=O)C[C@@H](C)NC(=O)[C@H](C(C)C)N(C)C(=O)[C@](C)(CC(C)C)NC(=O)[C@@H]2CCCN2C(=O)[C@H](CCc2ccc(C(F)(F)F)c(Cl)c2)NC(=O)CN(C)C(=O)[C@H](CC2CCCCC2)N(C)C(=O)CN(C)C(=O)CN(C)C1=O [Compound 705] (cyclo(I[Sar][Sar][NMeCha][Sar][hPhe(3-Cl-4-CF3)]P[αMeL][NMeV][d(β3hA)][NMeL])) | > 500
8 | CC[C@H](C)[C@@H]1NC(=O)[C@H](CC(C)C)N(C)C(=O)C[C@@H](C(=O)N(C)C)N(C)C(=O)[C@H](C2CCCC2)N(C)C(=O)C2(CCCC2)NC(=O)[C@H](Cc2ccc(C)cc2)N(C)C(=O)[C@H](CCc2ccc(C(F)(F)F)c(Cl)c2)NC(=O)CN(C)C(=O)[C@H](CC2CCCCC2)N(C)C(=O)[C@@H]2CCN2C(=O)[C@H](C)N(C)C1=O [Compound 908] ([NMeL]I[NMeA][Aze][NMeCha][Sar][hPhe(3-Cl-4-CF3)][NMePhe(4-Me)][Ac5c][NMeGly(cPent)][NMeD]-NMe2; lactam N-11) | > 500
9 | CC(C)C[C@H]1C(=O)N[C@@H](CC2CCCC2)C(=O)N(C)CC(=O)N(C)CC(=O)N(C)[C@@H](CC2CCCCC2)C(=O)N(C)CC(=O)N[C@@H](CCc2ccc(C(F)(F)F)c(Cl)c2)C(=O)N2CCC[C@H]2C(=O)NC2(CCCC2)C(=O)N(C)[C@@H](C(C)C)C(=O)N(C)[C@H](C(=O)N2CCCCC2)CC(=O)N1C [Compound 627] ([NMeL][Ala(cPent)][Sar][Sar][NMeCha][Sar][hPhe(3-Cl-4-CF3)]P[Ac5c][NMeV][NMeD]-Piperidide; lactam N-11) | > 500
10 | CC[C@H](C)[C@@H]1NC(=O)[C@H](CC(C)C)N(C)C(=O)C[C@@H](C(=O)N2CCCCC2)N(C)C(=O)[C@H](C(C)C)N(C)C(=O)C2(CCCC2)NC(=O)[C@@H]2CCCN2C(=O)[C@H](CCc2ccc(C(F)(F)F)c(Cl)c2)NC(=O)CN(C)C(=O)[C@H](Cc2ccccc2C#N)N(C)C(=O)CN(C)C(=O)CN(C)C1=O [Compound 935] ([NMeL]I[Sar][Sar][NMePhe(2-CN)][Sar][hPhe(3-Cl-4-CF3)]P[Ac5c][NMeV][NMeD]-Piperidide; lactam N-11) | > 500
11 | CC[C@H](C)[C@@H]1NC(=O)[C@H](CC(C)C)N(C)C(=O)C[C@@H](C)N(C)C(=O)[C@H](CC2CCCC2)N(C)C(=O)C2(CCCC2)NC(=O)[C@@H]2CCCN2C(=O)[C@H](CCc2ccc(C(F)(F)F)c(Cl)c2)NC(=O)CN(C)C(=O)[C@H](CC2CCCCC2)N(C)C(=O)CN(C)C(=O)CN(C)C1=O [Compound 991] (cyclo([Ac5c][NMeAla(cPent)][NMedβ3hAla][NMeL]I[Sar][Sar][NMeCha][Sar][hPhe(3-Cl-4-CF3)]P)) | > 500
12 | CCCC[C@@H]1NC(=O)[C@H](Cc2cccc(I)c2)NC(=O)CN(C)C(=O)[C@H](Cc2ccc(Cl)cc2)N(C)C(=O)CN(C)C(=O)CN(C)C(=O)[C@H]([C@@H](C)CC)NC(=O)[C@H](CC(C)C)N(C)C(=O)C[C@@H](C(=O)N2CCCCC2)N(C)C(=O)[C@H](CC(C)C)NC(=O)[C@H](Cc2ccc(C(F)(F)F)cc2)N(C)C1=O [Compound 498] ([NMeL]I[Sar][Sar][NMePhe(4-Cl)][Sar][Phe(3-I)][Nle][NMePhe(4-CF3)]L[NMeD]-Piperidide; lactam N-11) | > 500
13 | CC[C@H](C)[C@@H]1NC(=O)[C@H](CC(C)C)N(C)C(=O)C[C@@H](COCC(=O)NC(C)(C)C)NC(=O)[C@H](C(C)C)N(C)C(=O)C2(CCCC2)NC(=O)[C@@H]2CCCN2C(=O)[C@H](CCc2ccc(C(F)(F)F)c(Cl)c2)NC(=O)CN(C)C(=O)[C@H](CC2CCCCC2)N(C)C(=O)CN(C)C(=O)CN(C)C1=O [Compound 955] ([NMeL]I[Sar][Sar][NMeCha][Sar][hPhe(3-Cl-4-CF3)]P[Ac5c][NMeV]; linker N-C via X37) | > 500
14 | CC[C@H](C)[C@@H]1NC(=O)[C@H](CC(C)C)N(C)C(=O)C[C@@H](C)NC(=O)[C@H](CC(C)C)N(C)C(=O)C2(CCCC2)NC(=O)[C@@H]2CCCN2C(=O)[C@H](CCc2ccc(S(F)(F)(F)(F)F)cc2)NC(=O)CN(C)C(=O)[C@H](CC2CCCCC2)N(C)C(=O)CN(C)C(=O)CN(C)C1=O [Compound 1021] (cyclo([Ac5c][NMeL][d(β3hA)][NMeL]I[Sar][Sar][NMeCha][Sar][X115]P)) | > 500
